Assay results: patent US10434112B2, “Use of agonists of formyl peptide receptor 2 for treating dermatological diseases” (Allergan, Inc., priority 2013, dated 2019)

Target: human FPR2 receptor (Homo sapiens (Human), UniProt P25090)
Experiment: FLIPR Ca+2 response in HEK-Gα16 cells stably expressing the human FPR2 receptor
Assay type: cell-based
Set-up: FPR2 (% eff): unit not given here
Conditions: Table 4; value in brackets, given mostly as fraction
Procedure, shortened: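 HEK-Gα16 cells stably expressing human FPR2, loaded with 2 μM Fluo-4 in HBSS/20 mM HEPES for 40 min at 37° C., then washed. Ligands added in HBSS/Hepes and Ca+2 responses recorded on FLIPR in relative fluorescence units.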

Chain of human FPR2 receptor (P25090 whole entry): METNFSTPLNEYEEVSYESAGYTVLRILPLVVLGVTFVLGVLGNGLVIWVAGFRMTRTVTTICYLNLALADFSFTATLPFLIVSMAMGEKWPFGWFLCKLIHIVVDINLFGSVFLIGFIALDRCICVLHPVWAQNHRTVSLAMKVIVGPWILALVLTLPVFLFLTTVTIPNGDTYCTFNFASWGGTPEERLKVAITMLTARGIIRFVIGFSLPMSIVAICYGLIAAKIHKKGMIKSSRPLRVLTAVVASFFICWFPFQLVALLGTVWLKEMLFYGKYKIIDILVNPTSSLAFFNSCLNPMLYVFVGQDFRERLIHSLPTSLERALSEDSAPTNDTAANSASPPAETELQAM

Question: With `CC[C@H](C)[C@H](NC(=O)Nc1ccc(Br)cc1)C(=O)NCC(=O)O` [Compound 3, {[(2S,3S)-2-{[(4-bromophenyl)carbamoyl]amino}-3-methylpentanoyl]amino} acetic acid] as the compound, how does the “FPR2 (% eff)” value read?
Answer: 1.0

Target: FPRL-1 (Homo sapiens (Human), UniProt P25090)
Experiment: FPRL-1 Ga16-CHO EC50 (efficacy)
Assay type: cell-based
Conditions: Table 1

Chain of FPRL-1 (P25090 whole entry): as above

Question: Which EC50 does the source give for `O=C(Nc1ccc(Br)cc1)NC(Cc1ccccc1)C(=O)O` (stereo in doubt) [(2S)-2-({[(4-bromophenyl)amino]carbonyl}amino)-3-phenylpropanoic acid] here?
Answer: 0.031 µM

Same assay, conditions: Table 1; value in brackets

Question: Which “FPRL-1 Ga16-CHO (efficacy)” value does the source give for `O=C(Nc1ccc(Cl)c(Cl)c1)N[C@@H](Cc1ccccc1)C(=O)O` [(2S)-2-({[(3,4-dichlorophenyl)amino]carbonyl}amino)-3-phenylpropanoic acid] here?
Answer: 0.57

Question: With `O=C(Nc1ccc(Br)cc1)N[C@H](Cc1ccccc1)C(=O)O` [(2R)-2-({[(4- bromophenyl)amino]carbonyl}amino)- 3-phenylpro] [(2R)-2-({[(4-bromophenyl)amino]carbonyl}amino)-3-phenylpropanoic acid] as the compound, how does the “FPRL-1 Ga16-CHO (efficacy)” value read?
Answer: 0.99

Question: Which “FPRL-1 Ga16-CHO (efficacy)” value does the source give for `COc1ccc(NC(=O)NC(Cc2ccccc2)C(=O)O)cc1OC` (stereo not shown) [2-({[(3,4-dimethoxyphenyl)amino]carbonyl}amino)-3-phenylpropanoic acid] here?
Answer: 0.72

Question: How did the “FPRL-1 Ga16-CHO (efficacy)” value turn out when `CC(C)[C@H](NC(=O)Nc1ccc(Br)cc1)C(=O)O` [(2S)-2-({[(4-bromophenyl)amino]carbonyl}amino)-3-methylbutanoic acid] was run?
Answer: 0.91

Question: For `O=C(Nc1ccc(Br)cc1)N[C@H](C(=O)O)c1ccccc1` [(2S)-({[(4-bromophenyl)amino]carbonyl}amino) (phenyl)acetic acid], which “FPRL-1 Ga16-CHO (efficacy)” value is on record?
Answer: 0.94

Question: Which “FPRL-1 Ga16-CHO (efficacy)” value does the source give for `O=C(Nc1ccc(C(F)(F)F)cc1)N[C@@H](Cc1ccccc1)C(=O)O` [(2S)-3-phenyl-2-[({[4-(trifluoromethyl)phenyl]amino}carbonyl)amino]propanoic acid] here?
Answer: 0.97

Question: For `O=C(Nc1ccc(Br)cc1)NC(Cc1ccccc1)C(=O)O` (stereo in doubt) [(2S)-2-({[(4- bromophenyl)amino]carbonyl}amino)- 3-phenylpro] [(2S)-2-({[(4-bromophenyl)amino]carbonyl}amino)-3-phenylpropanoic acid], which “FPRL-1 Ga16-CHO (efficacy)” value is on record?
Answer: 1.0

Question: Which “FPRL-1 Ga16-CHO (efficacy)” value does the source give for `CC[C@H](C)[C@H](NC(=O)Nc1ccc(Br)cc1)C(=O)O` [(2S,3S)-2-({[(4-bromophenyl)amino]carbonyl}amino)-3-methylpentanoic acid] here?
Answer: 0.89

Question: `CC(C)[C@H](NC(=O)Nc1ccc(Br)cc1F)C(=O)O` [(2S)-2-({[(4-bromo-2-fluorophenyl)amino]carbonyl}amino)-3-methylbutanoic acid] was tested. Which “FPRL-1 Ga16-CHO (efficacy)” value did it give?
Answer: 0.91

Question: How did the “FPRL-1 Ga16-CHO (efficacy)” value turn out when `O=C(Nc1ccc(Cl)cc1)NC(Cc1ccccc1)C(=O)O` (stereo not shown) [2-({[(4-chlorophenyl)amino]carbonyl}amino)-3-phenylpropanoic acid] was run?
Answer: 1.0

Question: Which “FPRL-1 Ga16-CHO (efficacy)” value does the source give for `COc1ccc(NC(=O)N[C@@H](Cc2ccccc2)C(=O)O)cc1` [(2S)-2-({[(4-methoxyphenyl)amino]carbonyl}amino)-3-phenylpropanoic acid] here?
Answer: 0.90

Question: With `O=C(Nc1ccc(Br)cc1)NC(Cc1c[nH]c2ccccc12)C(=O)O` (stereo not shown) [2-({[(4-bromophenyl)amino]carbonyl}amino)-3-(1H-indol-3-yl)propanoic acid] as the compound, how does the “FPRL-1 Ga16-CHO (efficacy)” value read?
Answer: 0.89

Question: Which “FPRL-1 Ga16-CHO (efficacy)” value does the source give for `O=C(Nc1ccc(OC(F)(F)F)cc1)NC(Cc1ccccc1)C(=O)O` (stereo not shown) [3-phenyl-2-[({[4-(trifluoromethoxy)phenyl]amino}carbonyl)amino]propanoic acid] here?
Answer: 0.79

Same assay, conditions: Table 2; value in brackets

Question: For `CC1(CCc2ccccc2)NC(=O)N(NC(=O)Nc2ccccc2F)C1=O` (stereo not shown) [1-(2-fluorophenyl)-3-[4-methyl-2,5-dioxo-4-(2-phenylethyl)imidazolidin-1-yl]urea], which “FPRL-1 Ga16-CHO (efficacy)” value is on record?
Answer: 0.94

Question: `CC1(CCc2ccccc2)NC(=O)N(NC(=O)Nc2ccccc2)C1=O` (stereo not shown) [1-[4-methyl-2,5-dioxo-4-(2-phenylethyl)imidazolidin-1-yl]-3-phenylurea] was tested. Which “FPRL-1 Ga16-CHO (efficacy)” value did it give?
Answer: 1.0

Question: `Cc1ccc(NC(=O)NN2C(=O)NC3(CCC(C)CC3)C2=O)cc1` (stereo not shown) [1-(8-methyl-2,4-dioxo-1,3-diazaspiro[4,5]decan-3-yl)-3-(p-tolyl)urea] was tested. Which “FPRL-1 Ga16-CHO (efficacy)” value did it give?
Answer: 0.91

Question: How did the “FPRL-1 Ga16-CHO (efficacy)” value turn out when `CCC1(C)NC(=O)N(NC(=O)Nc2ccc(Cl)cc2)C1=O` (stereo not shown) [1-(4-chlorophenyl)-3-(4-ethyl-4-methyl-2,5-dioxoimidazolidin-1-yl)urea] was run?
Answer: 0.96

Question: Which “FPRL-1 Ga16-CHO (efficacy)” value does the source give for `O=C(Nc1ccc(Cl)cc1)NN1C(=O)NC2(CCCCC2)C1=O` [1-(4-chlorophenyl)-3-(2,4-dioxo-1,3-diazaspiro[4,5]decan-3-yl) urea] here?
Answer: 0.98

Same assay, conditions: Table 3; value in brackets

Question: How did the “FPRL-1 Gal16-CHO (efficacy)” value turn out when `O=C(CN1C(=O)NC2(CCCCC2)C1=O)Nc1ccc(Br)cc1` [N-(4-bromophenyl)-2-(2,4-dioxo-1,3-diazaspiro[4.5]dec-3-yl)acetamide] was run?
Answer: 0.89

Question: `O=C(CN1C(=O)C2C3C=CC(C3)C2C1=O)Nc1ccc(Br)cc1` (stereo not shown) [N-(4-bromophenyl)-1,3,3a,4,7,7a-hexahydro-1,3-dioxo-4,7-methano-2H-isoindole-2-acetamide] was tested. Which “FPRL-1 Gal16-CHO (efficacy)” value did it give?
Answer: 0.90

Question: Which “FPRL-1 Gal16-CHO (efficacy)” value does the source give for `CCC1(CC)NC(=O)N(CC(=O)Nc2ccc(Br)cc2)C1=O` [N-(4-bromophenyl)-2-(4,4-diethyl-2,5-dioxoimidazolidin-1-yl)acetamide] here?
Answer: 0.98

Question: With `O=C(CN1C(=O)C2CC=CCC2C1=O)Nc1ccc(Br)cc1` (stereo not shown) [N-(4-bromophenyl)-1,3,3a,4,7,7a-hexahydro-1,3-dioxo-2H-isoindole-2-acetamide] as the compound, how does the “FPRL-1 Gal16-CHO (efficacy)” value read?
Answer: 0.98

Question: For `CC1(C)NC(=O)N(CC(=O)Nc2ccc(Br)cc2)C1=O` [N-(4-bromophenyl)-2-(4,4-dimethyl-2,5-dioxoimidazolidin-1-yl)acetamide], which “FPRL-1 Gal16-CHO (efficacy)” value is on record?
Answer: 0.94

System: LL-37-induced inflammation in mouse ears
Experiment: LL37-induced model of rosacea in mice (ear thickness)
Assay type: in vivo
Conditions: topical application to ears; FIG. 2; p<0.05 vs. vehicle at all time points
Experimental: Prior to dosing, animals are lightly anaesthetized with isofluorane and baseline right and left ear thickness measurements are made with a digital caliper (Mitutoyo 293-340). At t=−1 hrs, animals are lightly anaesthetized with isoflurane to allow topical application (dorsal side) of 10 μL of FPR2 agonist formulated in a vehicle consisting of PBS:ethanol (50:50), or vehicle control to both ears. At t=0 hr, mice are re-anaesthetized. Following ear thickness measurements, 20 uL of LL-37 (100 μM) is injected into the right ear, while PBS is injected into the left ear. Additional ear thickness measurements are taken at t=3 and 6 hours. After the last time point, mice are euthanized by CO2 inhalation and ears collected for additional analyses.

Question: With `CC(C)C[C@H](NC(=O)Nc1ccc(Br)cc1)C(=O)NCC(=O)O` [Compound 8, {[(2S)-2-{[(4-bromophenyl)carbamoyl]amino}-4-methylpentanoyl]amino} acetic acid] as the compound, how does the “Anti-inflammatory activity in the LL-37-induced rosacea mouse model” value (“Anti-inflammatory activity” for short) read?
Answer: Anti-inflammatory activity

Question: How did the “Anti-inflammatory activity” value turn out when `CC[C@H](C)[C@H](NC(=O)Nc1ccc(Br)cc1)C(=O)NCC(=O)O` [Compound 3, {[(2S,3S)-2-{[(4-bromophenyl)carbamoyl]amino}-3-methylpentanoyl]amino} acetic acid] was run?
Answer: Anti-inflammatory activity

Question: For `CC(C)C[C@H](NC(=O)Nc1ccc(Br)cc1F)C(=O)NCC(=O)O` [Compound 7, {[(2S)-2-{[(4-bromo-2-fluorophenyl)carbamoyl]amino}-4-methylpentanoyl]amino} acetic acid], which “Anti-inflammatory activity” value is on record?
Answer: Anti-inflammatory activity
